One test addresses hKOR (Homo sapiens, UniProt P41145). As to the kind of experiment: Radioligand binding assay (Eurofins Cerep), [3H]U69,593 displacement. The note with it: 3 independent experiments, read-out: Ki (nM ± SEM) KOR.
The next test deals with T1, α2A adrenergic receptor (Homo sapiens, UniProt P08913).
T1 construct: Eurofins Cerep (contract screening)
T1 sequence (P08913 1-465): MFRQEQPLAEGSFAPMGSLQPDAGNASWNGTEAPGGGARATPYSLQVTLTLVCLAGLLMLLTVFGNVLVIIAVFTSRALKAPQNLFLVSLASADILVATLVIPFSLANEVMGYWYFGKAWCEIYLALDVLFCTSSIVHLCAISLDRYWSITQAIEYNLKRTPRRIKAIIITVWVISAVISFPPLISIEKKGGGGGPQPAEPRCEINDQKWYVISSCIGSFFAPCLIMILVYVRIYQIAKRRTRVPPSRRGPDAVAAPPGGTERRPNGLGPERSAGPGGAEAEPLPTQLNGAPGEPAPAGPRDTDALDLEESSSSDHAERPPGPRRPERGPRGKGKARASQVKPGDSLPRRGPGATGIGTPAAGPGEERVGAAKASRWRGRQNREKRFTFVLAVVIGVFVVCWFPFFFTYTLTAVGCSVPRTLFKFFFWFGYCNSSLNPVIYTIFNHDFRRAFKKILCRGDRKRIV
Description: Radioligand binding assay (Eurofins Cerep), [3H]RX 821002 displacement. The note with it: 3 independent experiments.

The next test has as its target hDOR (Homo sapiens, UniProt P41143). As to the kind of experiment: Radioligand binding assay (Eurofins Cerep), [3H]DADLE displacement.
A further test concerns the target hMOR (Homo sapiens, UniProt P35372). As to the kind of experiment: Radioligand binding assay (Eurofins Cerep), [3H]DAMGO displacement.
[1] abbreviates: Table 3-3, read-out: Ki (nM ± SEM) a2A-AR.
Where [2] appears, read: Table 3-3, 3 independent experiments, read-out: Ki (nM ± SEM) DOR.
Setting [3] is: Table 3-3, 3 independent experiments, read-out: Ki (nM ± SEM) MOR.
[4] abbreviates: Table 3-5, 3 independent experiments, read-out: Ki (nM ± SEM) DOR.
The mark [5] stands for this setting: Table 3-5, 3 independent experiments, read-out: Ki (nM ± SEM) MOR.
[6] abbreviates: Table 3-5, read-out: Ki (nM ± SEM) a2A-ar.
Where [7] appears, read: Table 3-6, 3 independent experiments, read-out: Ki (nM ± SEM) MOR.
The mark [8] stands for this setting: Alpha2A Ki ± SEM (nM), Table B2, mean ± SEM.
[9] abbreviates: Table B2, mean ± SEM, 3 independent experiments, read-out: MOR Ki ± SEM.
Where [10] appears, read: Table A4, data summary #2, read-out: DOR Ki ± SEM.
Setting [11] is: Table A4, data summary #2, read-out: MOR Ki ± SEM.

Molecules are shown by their SMILES. Read-outs that look alike come from different tables or passages of the source.

hMOR, sequence (P35372 whole entry): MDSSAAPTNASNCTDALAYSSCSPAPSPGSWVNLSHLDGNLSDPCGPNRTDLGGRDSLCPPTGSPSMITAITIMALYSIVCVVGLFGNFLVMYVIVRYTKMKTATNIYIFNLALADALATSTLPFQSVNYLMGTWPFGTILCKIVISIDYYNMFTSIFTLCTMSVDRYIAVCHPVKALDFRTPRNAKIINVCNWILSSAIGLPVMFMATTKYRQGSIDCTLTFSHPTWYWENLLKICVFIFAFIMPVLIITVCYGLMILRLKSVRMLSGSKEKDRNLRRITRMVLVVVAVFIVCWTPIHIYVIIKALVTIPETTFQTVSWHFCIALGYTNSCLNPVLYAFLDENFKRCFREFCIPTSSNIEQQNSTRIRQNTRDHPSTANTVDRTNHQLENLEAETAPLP
hKOR, sequence (P41145 whole entry): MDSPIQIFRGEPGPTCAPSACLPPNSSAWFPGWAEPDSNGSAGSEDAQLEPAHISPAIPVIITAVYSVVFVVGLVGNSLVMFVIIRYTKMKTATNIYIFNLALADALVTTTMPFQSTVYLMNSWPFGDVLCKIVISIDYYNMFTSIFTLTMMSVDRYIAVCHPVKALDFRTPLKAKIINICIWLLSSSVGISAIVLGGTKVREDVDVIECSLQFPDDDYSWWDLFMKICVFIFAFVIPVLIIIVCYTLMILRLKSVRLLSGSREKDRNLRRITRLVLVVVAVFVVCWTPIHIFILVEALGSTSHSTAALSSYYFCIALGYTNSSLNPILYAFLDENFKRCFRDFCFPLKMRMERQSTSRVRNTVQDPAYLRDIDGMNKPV
hDOR, sequence (P41143 whole entry): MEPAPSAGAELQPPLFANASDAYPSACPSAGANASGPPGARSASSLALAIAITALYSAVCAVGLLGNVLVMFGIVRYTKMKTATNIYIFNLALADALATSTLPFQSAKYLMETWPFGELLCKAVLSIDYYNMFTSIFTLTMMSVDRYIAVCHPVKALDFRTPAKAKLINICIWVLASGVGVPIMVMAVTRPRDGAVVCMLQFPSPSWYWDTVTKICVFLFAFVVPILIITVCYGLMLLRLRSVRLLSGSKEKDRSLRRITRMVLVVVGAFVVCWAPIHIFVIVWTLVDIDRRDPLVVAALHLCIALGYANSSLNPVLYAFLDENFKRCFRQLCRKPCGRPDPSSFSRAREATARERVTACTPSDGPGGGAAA

Turning to `COC(=O)CC1CCN(CCc2cn(CCc3c[nH]c4ccccc34)c3ccccc23)CC1` [Compound 3-45], the inhibitory constant (Ki) (as a rule, a dissociation constant, usually derived from enzyme kinetics or from competition with a known ligand) on hKOR (Table 3-3) was > 10000 nM; at α2A adrenergic receptor (setting [1]), 7030 ± 2020 nM; at hDOR (setting [2]) it was > 10000 nM; at hMOR (setting [3]), 9280 ± 1730 nM. The “SR: Selectivity Ratio (KiMOR/Kiα2A)” value at hMOR (Table 3-3) was found to be 1.32.

With `COC(=O)CC1CCN(CC(=O)N2CCc3c(OC)cccc32)CC1` [Compound 3-46], the inhibition constant Ki is > 10000 nM at hKOR (Table 3-3), 6370 ± 1160 nM on α2A adrenergic receptor (setting [1]), > 10000 nM at hDOR (setting [2]) and > 10000 nM at hMOR (setting [3]).

Turning to `COC=C(C(=O)OC)C1CCN(Cc2ccccc2)CC1` [Compound 3-50], the Ki at hKOR (Table 3-4) is 5700 ± 558 nM; at α2A adrenergic receptor (Ki (nM ± SEM) a2A-AR, Table 3-4), > 10000 nM; on hDOR (Table 3-4, 3 independent experiments, read-out: Ki (nM ± SEM) DOR), > 10000 nM; on hMOR (Table 3-4, 3 independent experiments, read-out: Ki (nM ± SEM) MOR) it was > 10000 nM.

Turning to `COC=C(C(=O)OC)C1CCN(Cc2c[nH]c3ccccc23)CC1` [Compound 3-57], the inhibitory constant (Ki) at hKOR (Table 3-5) was > 10000 nM; at α2A adrenergic receptor (Ki (nM ± SEM) a2A-ar, Table 3-5), 867 ± 370 nM; at hDOR (setting [4]), > 10000 nM; on hMOR (setting [5]) it was > 10000 nM.

Take `COC(=O)CC1CCN(Cc2c[nH]c3ccccc23)CC1` [Compound 3-58]: the Ki on hKOR (Table 3-5) was 791 ± 216 nM; on α2A adrenergic receptor (setting [6]) it was 3460 ± 428 nM; on hDOR (setting [4]), > 10000 nM; on hMOR (setting [5]), 2700 ± 580 nM. In addition, the “SR: Selectivity Ratio (KiMOR/Kiα2A)” value on hMOR (Table 3-5) is listed as 0.78.

As to `COC(=O)CC1CCN(CC(=O)c2c[nH]c3cccc(OC)c23)CC1` [Compound 3-63], the inhibition constant (Ki) is > 10000 nM at hKOR (Table 3-5), 6370 ± 1160 nM at α2A adrenergic receptor (setting [6]), > 10000 nM on hDOR (setting [4]) and > 10000 nM at hMOR (setting [5]).

For the compound `COC(=O)CN1CCN(CCc2c[nH]c3cccc(OC)c23)CC1` [Compound 3-65], the inhibition constant Ki at hKOR (Table 3-6) was > 10000 nM; on α2A adrenergic receptor (Table 3-6, read-out: Ki (nM ± SEM) a2A-AR), 265 ± 64.3 nM; at hDOR (Table 3-6, 3 independent experiments, read-out: Ki (nM ± SEM) DOR), > 10000 nM; at hMOR (setting [7]), > 10000 nM.

As for `COC(=O)CN1CCN(CCc2c[nH]c3ccccc23)CC1` [Compound 3-66], the Ki at hKOR (Table 3-6) was > 10000 nM; at α2A adrenergic receptor (Ki (nM ± SEM) a2A-AR, Table 3-6), 9760 ± 4830 nM; at hDOR (Ki (nM ± SEM) DOR, Table 3-6, 3 independent experiments) it was > 10000 nM; at hMOR (setting [7]), 2030 ± 694 nM. Besides, the “SR: Selectivity Ratio (KiMOR/Kiα2A)” value at hMOR (Table 3-6) is reported as 0.21.

For `COC(=O)CC1CCN2CCC(O)(c3ccccc3)CC2C1` (stereo not shown) [SG-01-049], the inhibition constant Ki at α2A adrenergic receptor (setting [8]) came out at 80 ± 19 nM; at hMOR (setting [9]) it was 9810 ± 2860 nM.

As to `COC(=O)C=C1CCN2CCC(O)(c3ccccc3)CC2C1` (stereo not shown) [SG-01-053], the values for the Ki on α2A adrenergic receptor (setting [8]) and on hMOR (setting [9]) were 95 ± 35 nM and > 10000 nM, respectively.

For `CC[C@@H]1CN2CCc3c([nH]c4cccc(OC)c34)[C@@H]2C[C@@H]1/C(=C\OC)C(=O)N1CCOCC1` [SUSM-527, (E)-2-((2S,3S,12bS)-3-ethyl-8-methoxy-1,2,3,4,6,7,12,12b-octahydroindolo[2,3-a]quinolizin-2-yl)-3-methoxy-1-morpholinoprop-2-en-1-one], the Ki at hDOR (setting [10]) was > 10000 nM; at hMOR (setting [11]) it was 1660 ± 427 nM.

As to `CC[C@@H]1CN2CCc3c([nH]c4cccc(OC)c34)[C@@H]2C[C@@H]1/C(=C\OC)C(=O)NCc1ccccc1` [SUSM-560], the Ki at hDOR (setting [10]) is > 10000 nM; at hMOR (setting [11]), 5320 ± 800 nM.

Turning to `CC[C@@H]1CN2CCc3c([nH]c4cccc(OC)c34)[C@@H]2C[C@@H]1/C(=C\OC)C(=O)N1CCNCC1` [SUSM-562, (E)-2-((2S,3S,12bS)-3-ethyl-8-methoxy-1,2,3,4,6,7,12,12b-octahydroindolo[2,3-a]quinolizin-2-yl)-3-methoxy-1-(piperazin-1-yl)prop-2-en-1-one], the Ki on hDOR is > 10000 nM; at hMOR (setting [11]), 4210 ± 558 nM.

Turning to `CC[C@@H]1CN2CCc3c([nH]c4cccc(OC)c34)[C@@H]2C[C@@H]1/C(=C\OC)C(=O)N(C)Cc1ccccc1` [SUSM-563, (E)-N-benzyl-2-((2S,3S,12bS)-3-ethyl-8-methoxy-1,2,3,4,6,7,12,12b-octahydroindolo[2,3-a]quinolizin-2-yl)-3-methoxy-N-methylacrylamide], the Ki on hDOR (setting [10]) was 4520 ± 1990 nM; at hMOR (setting [11]), 5750 ± 770 nM.

On to `CC[C@@H]1CN2CCc3c([nH]c4cccc(OC)c34)[C@@H]2C[C@@H]1/C(=C\OC)C(=O)N1CCSCC1` [SUSM-564], for which the inhibition constant (Ki) on hDOR (setting [10]) is > 10000 nM; on hMOR (setting [11]), 134 ± 32 nM.

(Values after patent US20260234147A1 (priority 2023, published 2026).)
